# From patent US4792559A, “1,2,3,4-tetrahydroquinoline substituted 5-aminopentanenitrile compounds and their use as calcium modulators” (ADIR et Compagnie, priority 1985, dated 1988)
# Entries after “also recorded” stand apart in the source; their conditions may differ. Read-outs that look alike come from different tables or passages of the source.
# Tests used:
# aorta [1] = test: Isolated rat aorta rings stimulated with potassium-rich solution (K+ 100 mM), relaxation; parameters: species or system rat (male Wistar); conditions: aorta rings stimulated with K+ 100 mM, read-out: AORTA St:K+ IC50
# Method: (§1) a. Study of isolated organs removed from rats
# (§2) Male Wistar rats weighing from 350 to 400 g are used.
# (§3) After rapid sacrifice of the animal, the following are removed:
# (§4) the aorta, dissected and prepared in rings; after an equilibration period of 1 hour in the reference physiological solution (1), the prepared specimens are stimulated with a solution rich in potassium (K^+) (100 mM) or with noradrenaline (NA) (10^-6 M).
# (§5) The substances to be tested are then added (test sample 0.2 ml) in cumulative doses every 15 minutes.
# (§6) The relaxation values obtained permit an activity-dose curve to be constructed, enabling the IC50 to be calculated in M.
# (§7) The characteristics of the solutions used are as follows: […]
# aorta [2] = test: Isolated rat aorta rings stimulated with noradrenaline (10^-6 M), relaxation; parameters: species or system rat (male Wistar); conditions: read-out: AORTA St:NA IC50
# Method: as §1, §2, §3, §4, §5, §6, §7
# right auricle (RA) = test: Isolated right auricle, chronotropic effect; parameters: species or system rat (male Wistar); conditions: Rattus norvegicus
# Method: as §1, §2
# (§8) the right auricle (RA) and left auricle (LA) RA beats spontaneously.
# (§9) Stabilisation is obtained in physiological liquid (2) after 30 minutes.
# (§10) The substances to be tested are then added (test sample 0.2 ml) in cumulative doses every 15 minutes. The effects on RA are chronotropic. The effects on LA are inotropic. The construction of the activity-dose curves enables the IC50, expressed in M, to be measured.
# left auricle (LA) = test: Isolated left auricle, inotropic effect; parameters: species or system rat (male Wistar); conditions: Rattus norvegicus; stimulated electrically at 3 Hz
# Method: as §1, §2, §8
# LA is stimulated electrically at a rate of 3 Hz (180 beats per min.) (amplitude of the stimulations: threshold×2).
# as §9, §10
# left auricle / aorta = test: Evaluation of myocardium/vessel selectivity (IC50 LA/IC50 aorta); parameters: species or system rat (male Wistar); conditions: for LA/AORTA SELECTIVITY (St:K+): IC50 LA/IC50 aorta, high values indicate vascular selectivity
# Source text: c. Evaluation of myocardium/vessel selectivity
# The IC50 LA/IC50 aorta ratio leads to a first evaluation; the high values indicate vascular selectivity.
# calmodulin = calmodulin (Homo sapiens, UniProt P0DP23); test: Calcium calmodulin binding, fluorescence of dansylated calmodulin; conditions: for Kd/IC50 AORTA K+: close to 1 indicates vascular inhibition through calmodulin; for Kd: extrapolated to 0 calmodulin, read-out: Kd (cam); for mechanism indicated by the pharmacological effects: in vitro
# Method: b. Fixation on calcium calmodulin binding
# The orientations of synthesis which may lead to possibilities of inhibiting calmodulin are evaluated by measuring the fluorescence of dansylated calmodulin.
# The substances to be tested are added to the experimental vessel (2 ml). The increase in fluorescence of dansylated calmodulin enables effect-dose curves to be constructed; measuring the EC50 gives an apparent Kd value. After extrapolation of the apparent Kd values to 0 calmodulin, the experiments carried out for different calcium-calmodulin concentration values enable the characteristic Kd values of the tested substances to be determined (Method proposed by Johnson and Wittenauer, 1983, Biochem., 211, 473-479).
# d. Evaluation of the possibility of inhibition at the calmodulin level
# [3] = tested on: aorta artery of the rat without endothelium; test: Contraction of rat aorta without endothelium by ionophore calcium A 23187; conditions: A 23187 at 5.10^-6 M
# [4] = target: T1, Ca++ channels of membranes of transverse tubules in skeletal muscle (Homo sapiens, UniProt Q13698); test: Binding on Ca++ channels of membranes of transverse tubules in skeletal muscle
# T1 construct: membranes of transverse tubules in skeletal muscle; from tissue; host or cells: skeletal muscle, transverse tubule membranes
# T1 sequence (Q13698 whole entry): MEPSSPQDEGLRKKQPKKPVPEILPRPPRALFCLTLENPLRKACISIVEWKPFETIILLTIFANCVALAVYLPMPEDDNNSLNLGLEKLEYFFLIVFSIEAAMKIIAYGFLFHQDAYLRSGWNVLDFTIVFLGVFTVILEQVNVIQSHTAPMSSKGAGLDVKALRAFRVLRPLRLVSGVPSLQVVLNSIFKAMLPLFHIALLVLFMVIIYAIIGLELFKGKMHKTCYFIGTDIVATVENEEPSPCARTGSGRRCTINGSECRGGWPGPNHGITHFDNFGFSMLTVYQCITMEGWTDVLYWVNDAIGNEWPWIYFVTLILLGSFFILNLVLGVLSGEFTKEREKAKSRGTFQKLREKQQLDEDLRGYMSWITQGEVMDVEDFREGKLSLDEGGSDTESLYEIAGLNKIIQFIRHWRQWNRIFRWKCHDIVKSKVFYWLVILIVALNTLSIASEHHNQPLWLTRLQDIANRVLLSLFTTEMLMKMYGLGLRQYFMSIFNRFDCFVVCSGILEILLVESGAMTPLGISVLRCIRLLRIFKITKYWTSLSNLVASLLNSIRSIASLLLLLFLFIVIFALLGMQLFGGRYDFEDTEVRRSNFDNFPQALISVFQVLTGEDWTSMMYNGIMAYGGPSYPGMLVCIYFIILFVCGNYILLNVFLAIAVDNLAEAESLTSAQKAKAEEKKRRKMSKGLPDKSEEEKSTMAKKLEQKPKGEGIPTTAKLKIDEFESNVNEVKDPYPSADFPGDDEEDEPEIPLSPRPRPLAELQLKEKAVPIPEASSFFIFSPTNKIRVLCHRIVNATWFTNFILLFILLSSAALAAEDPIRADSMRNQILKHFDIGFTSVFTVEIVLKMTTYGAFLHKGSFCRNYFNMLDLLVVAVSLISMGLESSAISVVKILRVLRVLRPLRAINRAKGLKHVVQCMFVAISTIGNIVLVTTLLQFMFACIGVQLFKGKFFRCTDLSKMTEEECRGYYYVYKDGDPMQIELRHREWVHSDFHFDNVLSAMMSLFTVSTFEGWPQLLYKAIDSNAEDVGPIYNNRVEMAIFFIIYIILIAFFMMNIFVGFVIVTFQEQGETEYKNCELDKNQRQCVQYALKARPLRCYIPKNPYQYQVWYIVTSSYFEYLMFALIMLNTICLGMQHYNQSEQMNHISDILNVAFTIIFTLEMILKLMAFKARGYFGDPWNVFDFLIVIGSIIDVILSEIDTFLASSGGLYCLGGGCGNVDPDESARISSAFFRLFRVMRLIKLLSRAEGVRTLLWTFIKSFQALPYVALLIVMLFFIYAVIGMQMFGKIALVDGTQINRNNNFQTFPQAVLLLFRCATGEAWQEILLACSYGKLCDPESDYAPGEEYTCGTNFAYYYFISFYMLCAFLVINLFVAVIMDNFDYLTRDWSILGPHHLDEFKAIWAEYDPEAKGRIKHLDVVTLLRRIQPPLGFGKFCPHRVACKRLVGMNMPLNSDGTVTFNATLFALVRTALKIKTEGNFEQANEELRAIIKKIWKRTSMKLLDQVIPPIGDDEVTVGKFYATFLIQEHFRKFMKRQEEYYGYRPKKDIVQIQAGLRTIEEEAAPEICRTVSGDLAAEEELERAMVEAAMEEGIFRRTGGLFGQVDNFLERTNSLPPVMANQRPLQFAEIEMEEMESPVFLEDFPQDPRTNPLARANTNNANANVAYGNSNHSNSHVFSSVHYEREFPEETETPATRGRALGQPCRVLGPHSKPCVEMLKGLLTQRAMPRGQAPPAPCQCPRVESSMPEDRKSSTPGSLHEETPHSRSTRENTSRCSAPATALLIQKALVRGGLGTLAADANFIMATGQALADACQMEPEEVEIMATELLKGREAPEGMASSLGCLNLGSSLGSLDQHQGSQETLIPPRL
# T1 sequence (P54289 25-944 partner limits assumed): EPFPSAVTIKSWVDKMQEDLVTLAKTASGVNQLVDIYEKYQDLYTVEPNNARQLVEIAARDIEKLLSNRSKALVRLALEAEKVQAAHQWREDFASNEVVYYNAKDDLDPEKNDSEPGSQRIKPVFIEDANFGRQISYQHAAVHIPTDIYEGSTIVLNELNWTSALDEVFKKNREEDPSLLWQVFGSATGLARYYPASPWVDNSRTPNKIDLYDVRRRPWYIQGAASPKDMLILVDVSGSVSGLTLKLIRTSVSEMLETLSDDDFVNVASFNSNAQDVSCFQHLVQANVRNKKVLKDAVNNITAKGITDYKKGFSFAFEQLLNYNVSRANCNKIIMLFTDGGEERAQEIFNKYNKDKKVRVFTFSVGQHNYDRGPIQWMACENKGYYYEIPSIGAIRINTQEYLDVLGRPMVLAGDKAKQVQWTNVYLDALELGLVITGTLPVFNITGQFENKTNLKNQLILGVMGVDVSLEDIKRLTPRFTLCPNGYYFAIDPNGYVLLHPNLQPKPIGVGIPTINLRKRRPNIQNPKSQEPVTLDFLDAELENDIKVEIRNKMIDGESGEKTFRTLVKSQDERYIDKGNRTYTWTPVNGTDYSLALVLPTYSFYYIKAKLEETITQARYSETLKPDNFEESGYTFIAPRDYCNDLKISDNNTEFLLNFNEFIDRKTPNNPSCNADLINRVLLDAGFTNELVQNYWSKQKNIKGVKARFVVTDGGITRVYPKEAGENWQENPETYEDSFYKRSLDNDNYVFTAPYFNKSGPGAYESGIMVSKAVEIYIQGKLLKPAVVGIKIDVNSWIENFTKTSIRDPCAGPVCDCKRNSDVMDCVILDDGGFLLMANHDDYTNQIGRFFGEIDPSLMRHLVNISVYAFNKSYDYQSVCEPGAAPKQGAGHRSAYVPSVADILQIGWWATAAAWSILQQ
# T1 sequence (P54289 945-1103 partner limits assumed): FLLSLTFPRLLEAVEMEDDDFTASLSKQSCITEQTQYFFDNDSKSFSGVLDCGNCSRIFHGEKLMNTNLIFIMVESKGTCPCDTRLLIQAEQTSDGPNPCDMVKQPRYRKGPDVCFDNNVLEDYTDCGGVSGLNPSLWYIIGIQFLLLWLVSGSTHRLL
# T1 sequence (Q02641 whole entry partner): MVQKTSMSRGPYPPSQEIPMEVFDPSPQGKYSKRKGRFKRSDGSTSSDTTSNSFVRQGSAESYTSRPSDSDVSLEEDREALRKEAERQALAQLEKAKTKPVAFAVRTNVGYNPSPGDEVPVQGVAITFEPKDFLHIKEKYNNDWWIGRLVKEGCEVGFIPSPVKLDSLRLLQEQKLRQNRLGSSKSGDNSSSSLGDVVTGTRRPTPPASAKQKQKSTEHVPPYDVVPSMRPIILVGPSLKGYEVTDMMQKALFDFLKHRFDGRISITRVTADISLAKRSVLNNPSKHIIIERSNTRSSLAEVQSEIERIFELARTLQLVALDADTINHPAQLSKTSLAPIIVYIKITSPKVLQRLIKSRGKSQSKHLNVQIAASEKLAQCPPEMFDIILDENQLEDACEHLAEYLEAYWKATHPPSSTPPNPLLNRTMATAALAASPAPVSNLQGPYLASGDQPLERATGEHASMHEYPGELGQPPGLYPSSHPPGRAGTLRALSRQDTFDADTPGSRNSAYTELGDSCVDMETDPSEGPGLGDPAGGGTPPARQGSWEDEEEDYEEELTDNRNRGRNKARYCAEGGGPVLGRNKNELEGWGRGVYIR
# T1 sequence (Q06432 whole entry partner): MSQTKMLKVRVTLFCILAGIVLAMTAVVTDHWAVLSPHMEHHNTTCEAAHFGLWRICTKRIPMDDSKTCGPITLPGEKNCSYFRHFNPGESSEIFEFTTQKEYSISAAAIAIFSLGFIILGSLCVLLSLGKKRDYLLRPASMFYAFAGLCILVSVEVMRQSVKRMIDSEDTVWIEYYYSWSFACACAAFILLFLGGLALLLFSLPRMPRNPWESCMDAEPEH
# Source text: (§11) C. Binding on Ca^++ channels of membranes of transverse tubules in skeletal muscle.
# [5] = target: T2, Ca++ channels of membranes of transverse tubules in skeletal muscle; test: as above; conditions: transverse tubules in skeletal muscle; read-out: Kd for the Ca++ channel
# T2 construct: membranes of transverse tubules in skeletal muscle; from tissue; host or cells: skeletal muscle, transverse tubule membranes
# T2 sequence (Q13698 whole entry): as the sequence (Q13698 whole entry) above
# T2 sequence (P54289 25-944 partner limits assumed): as the sequence (P54289 25-944 partner limits assumed) above
# T2 sequence (P54289 945-1103 partner limits assumed): as the sequence (P54289 945-1103 partner limits assumed) above
# T2 sequence (Q02641 whole entry partner): as the sequence (Q02641 whole entry partner) above
# T2 sequence (Q06432 whole entry partner): as the sequence (Q06432 whole entry partner) above
# Source text: as §11
# dogs = test: Haemodynamic study in anaesthetised dogs; assay type: in vivo, mongrel dogs; conditions: for dP/dt: Left ventricular pressure derivative, variation: measured at 20 minutes; for negative inotropic effect / cardiotropic effect / percentage increase in the PR duration: i.v., compared with Verapamil
# Method: A haemodynamic study was carried out on mongrel dogs weighing from 25 to 30 kg, which were anaesthetised with sodium pentobarbital in a dose of 30 mg/kg i.v., intubated and ventilated, and subjected to a thoracotomy at the 5th left intercostal space.
# The left and aortal ventricular pressures are measured by means of MILLAR probes introduced by the femoral artery route. The cardiac frequency is measured by Biotach Gould ECG (derivation D2); the gases of the aortal blood and of the coronary sinus are analysed by an ABL3 radiometer.
# The products tested were injected by the femoral vein route.
# [6] = spontaneously beating, read-out: RIGHT AURICLE (RA) (CHRONOTROPIC EFFECT) IC50
SMILES,IC50 (aorta [1]; Rattus norvegicus) [nM],IC50 (aorta [2]) [nM],IC50 (right auricle (RA); [6]) [nM],IC50 (left auricle (LA)) [nM],Kd/IC50 AORTA K+ (calmodulin),Kd (calmodulin) [nM],LA/AORTA SELECTIVITY (St:K+) (left auricle / aorta),"AAP: Average arterial pressure, maximum variation (dogs; IV 100 μg/kg) [%]","ACF: Average coronary flow, maximum variation (dogs; IV 100 μg/kg)","CF: Cardiac frequency, maximum variation (dogs; IV 100 μg/kg) [%]","PO2 SC: PO2 coronary blood sinus, maximum variation (dogs; IV 100 μg/kg)","PR: PR space of the ECG, maximum variation (dogs; IV 100 μg/kg)","dP/dt: Left ventricular pressure derivative, variation (dogs; IV 100 μg/kg) [%]","AAP: Average arterial pressure, maximum variation (dogs; IV 300 μg/kg) [%]","ACF: Average coronary flow, maximum variation (dogs; IV 300 μg/kg)","CF: Cardiac frequency, maximum variation (dogs; IV 300 μg/kg) [%]","I/C: Myocardial O2 intake/consumption ratio, maximum variation (dogs; IV 300 μg/kg)","PO2 SC: PO2 coronary blood sinus, maximum variation (dogs; IV 300 μg/kg)","PR: PR space of the ECG, maximum variation (dogs; IV 300 μg/kg)","dP/dt: Left ventricular pressure derivative, variation (dogs; IV 300 μg/kg) [%]",other results
"COc1ccc(C(C#N)(CCCN(C)CCc2ccc(OC)c3c2CCCN3C(C)=O)C(C)C)cc1OC (centres unmarked) [Example 4, 2-(3,4-dimethoxyphenyl)-2-isopropyl-5-{N-[(1-acetyl-8-methoxy-1,2,3,4-tetrahydroquinol-5-yl)ethyl]-N-methyl-amino}-pentanenitrile]",600,13000,1500,8000,10.8,6500,13,–,–,–,–,–,–,-14,+84%,-17,+83%,+47%,+27%,-2,–
"COc1ccc(CCN(C)CCCC(C#N)(c2ccc(OC)c(OC)c2)C(C)C)cc1OC (centres unmarked) [Verapamil, verapamil, reference compound]",800,14000,–,2000,–,–,–,-16,+87%,-9,+42%,+14%,-5,-21,+99%,-8,–,+71%,+40%,-13,"IC50 (right auricle (RA); read-out: RIGHT AURICLE (RA) (CH[…]) IC50): 2000 nM; activity on contraction by ionophore calcium A 23187 [3]: inactive; AAP: Average arterial pressure, maximum variation (dogs; IV 30 μg/kg): -5%; ACF: Average coronary flow, maximum variation (dogs; IV 30 μg/kg): +32%; CF: Cardiac frequency, maximum variation (dogs; IV 30 μg/kg): -4%; PO2 SC: PO2 coronary blood sinus, maximum variation (dogs; IV 30 μg/kg): +18%; PR: PR space of the ECG, maximum variation (dogs; IV 30 μg/kg): +6%"

# Further compounds by falling IC50 (aorta [1]; Rattus norvegicus), results first:
IC50 (aorta [1]; Rattus norvegicus) [nM],IC50 (aorta [2]) [nM],IC50 (right auricle (RA); [6]) [nM],IC50 (left auricle (LA)) [nM],Kd/IC50 AORTA K+ (calmodulin),Kd (calmodulin) [nM],SMILES,LA/AORTA SELECTIVITY (St:K+) (left auricle / aorta),"AAP: Average arterial pressure, maximum variation (dogs; IV 100 μg/kg) [%]","ACF: Average coronary flow, maximum variation (dogs; IV 100 μg/kg)","CF: Cardiac frequency, maximum variation (dogs; IV 100 μg/kg) [%]","PO2 SC: PO2 coronary blood sinus, maximum variation (dogs; IV 100 μg/kg)","PR: PR space of the ECG, maximum variation (dogs; IV 100 μg/kg)","dP/dt: Left ventricular pressure derivative, variation (dogs; IV 100 μg/kg) [%]","AAP: Average arterial pressure, maximum variation (dogs; IV 300 μg/kg) [%]","ACF: Average coronary flow, maximum variation (dogs; IV 300 μg/kg)","CF: Cardiac frequency, maximum variation (dogs; IV 300 μg/kg) [%]","I/C: Myocardial O2 intake/consumption ratio, maximum variation (dogs; IV 300 μg/kg)","PO2 SC: PO2 coronary blood sinus, maximum variation (dogs; IV 300 μg/kg)","PR: PR space of the ECG, maximum variation (dogs; IV 300 μg/kg)","dP/dt: Left ventricular pressure derivative, variation (dogs; IV 300 μg/kg) [%]",other results
750,5500,10000,82000,1.08,810,"COc1cccc(C(C#N)(CCCN(C)CCc2ccc(OC)c3c2CCCN3C(C)=O)Sc2ccccc2)c1 (centres unmarked) [Example 1, 2-(3-methoxyphenyl)-2-phenylthio-5-{N-[(1-acetyl-8-methoxy-1,2,3,4-tetrahydroquinol-5-yl)ethyl]-N-methylamino}-pentanenitrile]",100,-9,+109%,-10,+36%,+7%,0,-24,+117%,-14,+118%,+63%,+19%,-3,"IC50 (aorta [1]): 600 nM; vascular selectivity (left auricle / aorta; compared with verapamil): this selectivity is greatest; also recorded: a greater selectivity in favour of vessels; affinity for calmodulin (calmodulin): an affinity for calmodulin coherent with the biological effect; mechanism indicated by the pharmacological effects (calmodulin): intracellular inhibitory mechanisms and, especially, a calcium-calmodulin inhibition mechanism; IC50 ([3]; Rattus norvegicus): ~1000 nM; affinity for calcium channels relative to verapamil [4]: ~20 times the one of verapamil; Kd [5]: 1 nM; AAP: Average arterial pressure, maximum variation (dogs; IV 30 μg/kg): 0%; ACF: Average coronary flow, maximum variation (dogs; IV 30 μg/kg): +54%; CF: Cardiac frequency, maximum variation (dogs; IV 30 μg/kg): -5%; I/C: Myocardial O2 intake/consumption ratio, maximum variation (dogs; IV 30 μg/kg): +19%; PO2 SC: PO2 coronary blood sinus, maximum variation (dogs; IV 30 μg/kg): +14%; PR: PR space of the ECG, maximum variation (dogs; IV 30 μg/kg): 0%; I/C: Myocardial O2 intake/consumption ratio, maximum variation (dogs; IV 100 μg/kg): +55%; negative inotropic effect / cardiotropic effect (dogs): absence of a negative inotropic effect; percentage increase in the PR duration (dogs): reduction in the percentage increase in the PR duration"
360,3000,2900,5500,0.66,240,"COc1ccc(C(C#N)(CCCN(C)CCc2ccc(OC)c3c2CCCN3C(C)=O)Sc2ccccc2)cc1OC (centres unmarked) [Example 7, 2-(3,4-dimethoxyphenyl)-2-phenylthio-5-{N-[(1-acetyl-8-methoxy-1,2,3,4-tetrahydroquinol-5-yl)ethyl]-N-methyl-amino}-pentanenitrile]",15,–,–,–,–,–,–,-16,+77%,-7,+52%,+36%,+15%,0,"mechanism indicated by the pharmacological effects (calmodulin): intracellular inhibitory mechanisms and, especially, a calcium-calmodulin inhibition mechanism; AAP: Average arterial pressure, maximum variation (dogs; IV 1000 μg/kg): -36%; ACF: Average coronary flow, maximum variation (dogs; IV 1000 μg/kg): +132%; CF: Cardiac frequency, maximum variation (dogs; IV 1000 μg/kg): -11%; I/C: Myocardial O2 intake/consumption ratio, maximum variation (dogs; IV 1000 μg/kg): +107%; PO2 SC: PO2 coronary blood sinus, maximum variation (dogs; IV 1000 μg/kg): +49%; PR: PR space of the ECG, maximum variation (dogs; IV 1000 μg/kg): +37%; dP/dt: Left ventricular pressure derivative, variation (dogs; IV 1000 μg/kg): -3%; negative inotropic effect / cardiotropic effect (dogs): absence of a negative inotropic effect; percentage increase in the PR duration (dogs): reduction in the percentage increase in the PR duration"
250,30000,1000,5200,97,34000,"COc1cccc(C(C#N)(CCCN(C)CCc2ccc(OC)c3c2CCCN3C(C)=O)C(C)C)c1 (centres unmarked) [Example 13, 2-(3-methoxyphenyl)-2-isopropyl-5-{N-[(1-acetyl-8-methoxy-1,2,3,4-tetrahydroquinol-5-yl)ethyl]-N-methyl-amino}-pentanenitrile]",20,-10,+42%,-11,+40%,+10%,0,-23,–,-15,+99%,+59%,+32%,-6,"I/C: Myocardial O2 intake/consumption ratio, maximum variation (dogs; IV 100 μg/kg): +45%"
